In DBAASP:
Values after ≈ are worked out from the molar mass of the structure shown. Values joined by “and” are separate entries in the source; they are usually repeats but may differ in a detail not shown here. Equal values may be shown once.

How the values were obtained:
Assay in all cases: ≥ marks a high value that may be exact or a test limit, other limits are often not marked, values filed in µg/mL are converted to µM
[1] = tested on: Clavibacter michiganensis subsp. michiganensis DSM 46294
[2] = tested on: Pectobacterium carotovorum subsp. carotovorum DSM 30168
[3] = tested on: Pseudomonas corrugata DSM 7228
[4] = tested on: Pseudomonas syringae pv. syringae DSM 10604
[5] = tested on: Pseudomonas syringae pv. tomato DC3000
[6] = tested on: Staphylococcus aureus 90857
[7] = tested on: Xanthomonas vesicatoria DSM 50861
Candida albicans 01U = tested on: Candida albicans 01U
Candida albicans 38U = tested on: Candida albicans 38U
Candida parapsilosis = tested on: Candida parapsilosis
[8] = tested on: Cryptococcus neoformans L26
[9] = tested on: Cryptococcus neoformans L30
[10] = tested on: Trichophyton mentagrophytes
Trichophyton rubrum = tested on: Trichophyton rubrum
[11] = tested on: Enterococcus faecalis ATCC 29212
[12] = tested on: Escherichia coli ATCC 11775
[13] = tested on: Escherichia coli ATCC 25922
[14] = tested on: Escherichia coli ATCC 43827
[15] = tested on: Acinetobacter baumannii ATCC 19606
[16] = tested on: Aspergillus fumigatus ATCC 26430
[17] = tested on: Enterococcus faecalis ATCC 19433
Escherichia coli D21 = tested on: Escherichia coli D21
[18] = tested on: Pseudomonas aeruginosa ATCC 27853
[19] = tested on: Staphylococcus aureus II ATCC 6538P
[20] = tested on: Listeria monocytogenes DBFIQ LM3
[21] = tested on: Staphylococcus aureus DBFIQ S21
[22] = tested on: Candida albicans ATCC 14053
Escherichia coli D31 = tested on: Escherichia coli D31
[23] = tested on: Klebsiella pneumoniae ATCC 13883
[24] = tested on: Staphylococcus aureus ATCC 25923
Aspergillus fumigatus = tested on: Aspergillus fumigatus
Escherichia coli D22 = tested on: Escherichia coli D22
Micrococcus luteus A270 = tested on: Micrococcus luteus A270
[25] = tested on: Neurospora crassa CBS 327-54
[26] = tested on: Staphylococcus aureus A170
[27] = tested on: Staphylococcus epidermidis
Azotobacter vinelandii = tested on: Azotobacter vinelandii
[28] = tested on: Salmonella enterica subsp. enterica serovar Typhimurium ATCC 14028

CC[C@H](C)[C@H](NC(=O)[C@H](CCCN=C(N)N)NC(=O)[C@@H](N)CC(C)C)C(=O)N[C@@H](CC(C)C)C(=O)N[C@@H](CCCN=C(N)N)C(=O)N[C@@H](CCCN=C(N)N)C(=O)N[C@@H](CC(C)C)C(=O)N[C@@H](CC(C)C)C(=O)N[C@@H](CCCN=C(N)N)C(=O)N[C@@H](CCCN=C(N)N)C(=O)N[C@@H](CC(C)C)C(=O)N[C@@H](Cc1ccccc1)C(N)=O [LRILRRLLRRLF] showed an MIC [1] of 3.08 µM (≈ 5 µg/mL), an MIC [2] of 6.15 µM (≈ 9.99 µg/mL) and an MIC [3] of 1.54 µM (≈ 2.5 µg/mL). The MIC [4] was 6.15 µM (≈ 9.99 µg/mL), the MIC [5] was 0.615 µM (≈ 0.999 µg/mL) and the MIC [6] was 6.25 µM (≈ 10.2 µg/mL). The MIC [7] was 3.08 µM (≈ 5 µg/mL).

CC[C@H](C)[C@H](NC(=O)[C@H](CC(C)C)NC(=O)[C@H](CCC(=O)O)NC(=O)[C@H](CO)NC(=O)[C@H](CCCN=C(N)N)NC(=O)[C@@H](N)CO)C(=O)N[C@H](C(=O)N[C@@H](Cc1cnc[nH]1)C(=O)N[C@@H](CCC(N)=O)C(=O)N[C@@H](CCCN=C(N)N)C(N)=O)C(C)C [SRSELIVHQR] was tested, and the MIC (Candida albicans 01U) was ≥ 52.3 µM, the MIC (Candida albicans 38U) was 26.1 µM (≈ 32 µg/mL) and the MIC (Candida parapsilosis) was ≥ 209 µM. The MIC [8] was ≥ 105 µM, the MIC [9] was ≥ 209 µM and the MIC [10] was ≥ 209 µM. It also gave an MIC (Trichophyton rubrum) of 26.1 µM (≈ 32 µg/mL).

Compound NC(=O)CC[C@H](NC(=O)[C@H](Cc1c[nH]c2ccccc12)NC(=O)[C@H](CCCN=C(N)N)NC(=O)[C@@H](N)CCCN=C(N)N)C(=O)N[C@@H](Cc1c[nH]c2ccccc12)C(=O)N[C@@H](CCCN=C(N)N)C(=O)O [RRWQWR] has an MIC [11] of 44 µM (≈ 43.4 µg/mL), an MIC [12] of 22 µM (≈ 21.7 µg/mL) and an MIC [13] of 22 µM (≈ 21.7 µg/mL). It also gave an MIC [14] of 5 µM (≈ 4.94 µg/mL).

In the case of CC(C)C[C@H](NC(=O)[C@H](CCCN=C(N)N)NC(=O)[C@H](CCCN=C(N)N)NC(=O)[C@H](CC(C)C)NC(=O)[C@H](CC(C)C)NC(=O)[C@H](CCCN=C(N)N)NC(=O)[C@H](CCCN=C(N)N)NC(=O)[C@H](CC(C)C)NC(=O)[C@H](CC(C)C)NC(=O)[C@H](CCCN=C(N)N)NC(=O)[C@H](CCCN=C(N)N)NC(=O)[C@H](CC(C)C)NC(=O)[C@H](C)NC(=O)[C@H](CC(=O)O)NC(=O)[C@@H](N)CC(=O)O)C(=O)O [DDALRRLLRRLLRRL], the MIC [15] was 75 µM and 100 µM, the MIC [16] was 6.2 µM and 3.1 µM and the MIC [17] was ≥ 100 µM. For the same compound, the MIC [13] was 100 µM (≈ 194 µg/mL), the MIC (Escherichia coli D21) was ≥ 50 µM and the MIC [18] was 50 µM (≈ 96.8 µg/mL). For the same compound, the MIC [19] was ≥ 50 µM and 31 µM.

In the case of CC[C@H](C)[C@H](NC(=O)[C@H](C)NC(=O)[C@@H](NC(=O)[C@H](C)NC(=O)CN)[C@@H](C)O)C(=O)N[C@@H](CCCCN)C(=O)N[C@@H](CCC(N)=O)C(=O)N[C@H](C(=O)N[C@@H](CCCCN)C(=O)N[C@@H](CCCCN)C(=O)N[C@@H](CC(C)C)C(=O)N[C@@H](Cc1ccccc1)C(=O)N[C@@H](CCCCN)C(=O)N[C@@H](CCCCN)C(=O)N[C@@H](CCCCN)C(=O)NCC(=O)NCC(N)=O)C(C)C [GATAIKQVKKLFKKKGG], the MIC [20] was 17.8 µM (≈ 32.1 µg/mL) and the MIC [21] was 8.9 µM (≈ 16 µg/mL).

CC[C@H](C)[C@@H]1NC(=O)CNC(=O)[C@H](CCCCN)NC(=O)[C@H](CC(N)=O)NC(=O)[C@H](CCCNC(=N)N)NC(=O)[C@H](C(C)C)NC(=O)[C@@H](NC(=O)[C@H](CO)NC(=O)[C@@H](NC(=O)[C@@H]2CCCN2C(=O)[C@@H](N)CC(N)=O)C(C)C)CSSC[C@@H]2NC(=O)[C@H](CCCCN)NC(=O)[C@H](C(C)C)NC(=O)[C@H](C)NC(=O)[C@H](CCCNC(=N)N)NC(=O)CNC(=O)[C@H](C(C)C)NC(=O)[C@@H]3CSSC[C@H](NC1=O)C(=O)N[C@@H](C(C)C)C(=O)N1CCC[C@H]1C(=O)N[C@@H]([C@@H](C)CC)C(=O)N[C@@H](CCCNC(=N)N)C(=O)N[C@@H](CSSC[C@@H](C(=O)N[C@@H](CCCNC(=N)N)C(=O)N[C@@H](CCCCN)C(=O)N[C@@H](CCCCN)C(=O)O)NC2=O)C(=O)N1CCC[C@H]1C(=O)NCC(=O)N[C@@H](CO)C(=O)N[C@@H](CCSC)C(=O)N[C@@H](CCCCN)C(=O)N[C@@H](CCC(N)=O)C(=O)N[C@@H]([C@@H](C)CC)C(=O)NCC(=O)N[C@@H]([C@@H](C)O)C(=O)N3 [NPVSCVRNKGICVPIRCPGSMKQIGTCVGRAVKCCRKK] showed an MIC [22] of 2.07 µM (≈ 8.47 µg/mL), an MIC (Escherichia coli D31) of 4.23 µM (≈ 17.3 µg/mL) and an MIC [23] of 4.23 µM (≈ 17.3 µg/mL). It also gave an MIC [18] of 8.64 µM (≈ 35.3 µg/mL) and an MIC [24] of 8.64 µM (≈ 35.3 µg/mL).

With CSCC[C@H](NC(=O)[C@H](CO)NC(=O)[C@@H](N)CO)C(=O)N[C@@H](CCCCN)C(=O)N[C@@H](CC(C)C)C(=O)N[C@@H](CO)C(=O)N[C@@H](Cc1ccccc1)C(=O)N[C@@H](CCCN=C(N)N)C(=O)N[C@@H](C)C(=O)N[C@@H](CCCN=C(N)N)C(=O)N[C@@H](C)C(=O)N[C@@H](Cc1ccc(O)cc1)C(=O)N[C@@H](CO)C(=O)N[C@@H](Cc1ccccc1)C(=O)N[C@@H](CCCN=C(N)N)C(=O)NCC(=O)N1CCC[C@H]1C(=O)NCC(=O)N1CCC[C@H]1C(=O)N[C@@H](CCC(N)=O)C(=O)N[C@@H](CC(C)C)C(=O)O [SSMKLSFRARAYSFRGPGPQL] the MIC (Aspergillus fumigatus) was ≥ 80 µM, the MIC (Escherichia coli D22) was ≥ 40 µM and the MIC (Micrococcus luteus A270) was 2 µM (≈ 4.71 µg/mL). It also gave an MIC [25] of 5 µM (≈ 11.8 µg/mL).

For CC[C@H](C)[C@H](NC(=O)[C@@H]1CCCN1C(=O)[C@H](CC(C)C)NC(=O)[C@@H](N)CC(C)C)C(=O)N[C@H](C(=O)N[C@@H](C)C(=O)N[C@@H](CC(N)=O)C(=O)N[C@@H](CC(C)C)C(=O)N[C@@H](CC(C)C)C(=O)N[C@@H](CCCCN)C(=O)N[C@@H](C)C(=O)N[C@@H](CC(C)C)C(=O)N[C@@H](CC(C)C)C(=O)O)C(C)C [LLPIVANLLKALL], the MIC [26] was 3.6 µM (≈ 5 µg/mL) and the MIC [27] was 7.19 µM (≈ 10 µg/mL).

For CC(C)[C@H](NC(=O)[C@H](CCCCN)NC(=O)[C@@H](NC(=O)[C@@H](NC(=O)[C@H](CCC(=O)O)NC(=O)[C@H](CC(N)=O)NC(=O)[C@H](CCC(=O)O)NC(=O)[C@H](CCCCN)NC(=O)[C@H](CC(=O)O)NC(=O)[C@H](CC(=O)O)NC(=O)[C@H](CCC(=O)O)NC(=O)[C@H](CCC(=O)O)NC(=O)[C@H](CCC(=O)O)NC(=O)[C@@H](NC(=O)[C@H](CCCCN)NC(=O)[C@H](CC(=O)O)NC(=O)[C@H](CC(=O)O)NC(=O)[C@@H](N)CC(=O)O)[C@@H](C)O)[C@@H](C)O)[C@@H](C)O)C(=O)N[C@H](C(=O)N[C@@H](CCC(=O)O)C(=O)O)C(C)C [DDDKTEEEDDKENETTKVVE], the MIC (Azotobacter vinelandii) was ≥ 84.6 µM and the MIC [28] was 42.3 µM (≈ 100 µg/mL).
